Results published in patent publication US20050113256A1, “Methods of reducing the nicotine content of tobacco plants and tobacco plants obtained thereby” (priority 2003, published 2005).

What was measured:
[1] = system: transgenic tobacco plant leaves; conditions: transgenic tobacco leaves starting at 0.05 mg per gram; one GOX-leaf bruising treatment
Excerpt: One group of the tobacco plants was exposed to H. zea neonates for a three day period during the growing season. A second group of the tobacco plants was exposed to H. zea neonates multiple times each for a three-day period during the growing season. A third group of tobacco plants was isolated from H. zea neonates for establishing a control. The leaves were harvested at the end of the growing season and the caterpillars were removed. The tobacco leaves were air dried and processed. Each of the dried tobacco leaves were treated and extracted with 10 ml of 25 mM sodium phosphate buffer at 30° C. for about 24 hours at constant agitation.

[2] = system: tobacco leaves (Nicotiana tabacum); assay: Treatment of individual tobacco leaves with test solutions, nicotine reduction; assay type: in vivo; conditions: incubated for about 3 days
[3] = system: parasitoids (wasps) (Cotesia glomerate); assay: Attraction of parasitoids (wasps) to cabbage plants treated with β-glucosidase; assay type: in vivo; conditions: amount of β-glucosidase in 25 μl
Excerpt: We have discovered that generic defense mechanisms are elicited by herbivores such as caterpillars. In this example, a caterpillar (Pieris brassicae) attacked a cabbage plant releasing a defensive mixture of volatiles which attract parasitic wasps (Cotesia glomerate) which then attack and destroy the caterpillars. The caterpillar gut regurgitant contains enzymatic β-glucosidase which elicits the mixture of volatiles referred to above. Commercial β-glucosidase performs in a similar manner.
Cabbage (eight weeks old) and P. Brassicae (caterpillar) and parasitoids (wasps) were reared according to the method of Steinberg S. et al., Entomol. Exp. Appl 63 163-175 (1992). […] Ion chromatograms identified […], 1-hexanol, E-2-hexene 1-YL acetate as major components of the volatiles released by the cabbage plants. This experiment illustrates another specific example (compare to H. zea) of evolutionary arms race wherein an elicitor-antagonist biological system focuses on a defensive enzyme reaction.

Row | Substance | nicotine content after treatment [1] | Reduction of Nicotine [2] | attraction of parasitoids (wasps) [3]
1 | glucose oxidase [Active GOX] | 0.01 mg of nicotine/per gram | 0.60 to 0.70 mg/g | 
2 | β-glucosidase |  |  | clearly resulted in the attraction of parasitoids
